Experimental findings from PMC8467576, “Novel Ubiquitin Specific Protease-13 Inhibitors Alleviate Neurodegenerative Pathology” (Metabolites, 2021) are described below.

In this assay the test system is alpha-synuclein ubiquitination. In words: Alpha-synuclein ubiquitination in TgA53T mice (IP/WB, co-localization immunostaining). Format: in vivo, mouse. On the procedure:
Male and female TgA53T mice (15 months old) were treated daily with intraperitoneal injection of DMSO versus 10 mg/kg or 40 mg/kg BK50118-C for 7 days. […] ELISA measurement of alpha-synuclein in the same extracts (Figure 4C) confirmed that human alpha-synuclein was reduced by about 30% (10 mg/kg) and 56% (40 mg/kg), respectively (Figure 4C).
To ascertain the mechanistic effects of BK50118-C on alpha-synuclein clearance, we performed immunostaining in striatum of TgA53T mice. […] We also performed the staining of tyrosine hydroxylase (TH) in the striatum of TgA53T mice. TH is the enzyme responsible for catalyzing the rate limiting step in synthesis of L-3,4-dihydroxyphenylalanine(L-DOPA) which is a precursor for dopamine (DA). Staining of TH will help to evaluate the status of DA producing neurons in the SN and their terminals in the striatum.
BK50118-C is one of novel small molecule inhibitors of USP13 synthesized in our laboratory. For BK50118-C treatment, approximately 15 months old (±1 month) male and female TgA53T mice were treated with intraperitoneal injection of vehicle (DMSO) or BK50118-C at the daily dosage of 10 mg/Kg or 40 mg/Kg for 7 days. […]
Mouse brain tissues were homogenized in 1x STEN buffer, and the soluble fraction was isolated as indicated above. […] The supernatant was recovered and quantified by protein assay, and a total of 300 µg protein was incubated overnight at 4 °C with primary anti-alpha-synuclein (1:200, Thermofisher, AHB0261) mouse antibodies or anti-ubiquitin (1:100) (Thermo Fisher, PA3–16717, Rockford, IL, USA) antibodies in the presence of sepharose G and an IgG control with primary antibodies. […]
Immunohistochemistry was performed on the 20 µm thick brain sections for evaluation of ubiquitination of alpha-synuclein. […] The optic densitometry of co-localization of ubiquitin with alpha-synuclein was measured using Image J. Tyrosine hydroxylase (TH) is the limiting enzyme in DA synthesis, so probing for TH+ neurons will help to evaluate the status of DA producing neurons in the SN and their terminals in the striatum. […]

[1] abbreviates: midbrain extracts, 40 mg/kg vs DMSO and 10 mg/kg, 7 days.

SMILES strings stand for the structures.

Regarding `Fc1ccc2nccc(OCc3ccccc3)c2c1` [BK50118-C, 4-benzyloxy-6-fluoroquinoline], under setting [1], the “ubiquitination after immunoprecipitation of alpha-synuclein followed by ubiquitin WB” value is recorded as “increased ubiquitination” and the “ubiquitination of alpha-synuclein after immunoprecipitation of ubiquitin followed by alpha-synuclein WB” value is reported as “increased ubiquitination of alpha-synuclein”. Also, the “increase in alpha-synuclein-ubiquitin co-localization (optic density)” value (striatum, 40 mg/Kg I.P. daily for 7 days, vs DMSO) is on record as 130%.
